How the values were obtained:
Capivasertib = compound: C1CN(CCC1(C(=O)N[C@@H](CCO)C2=CC=C(C=C2)Cl)N)C3=NC=NC4=C3C=CN4 [Capivasertib]; settings: max 10 µM
Method in brief: (§1)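 Following 24 hours at 37°C and 5% CO2, cancer cell lines in 1536-well plates with 7.5 μl DMEM/F12 or RPMI and 10% FBS were dosed for 72 hours, final DMSO typically being 0.2%. CellTiter-Glo 2.0 luminescence, scaled between blank-well and DMSO-well means, gave the viability readout. Dose responses were fitted to a two-parameter logistic curve with a non-linear mixed effects model, and the single-agent IC50 was derived from this fit.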

AZD1775 = compound: C=CCn1c(=O)c2cnc(Nc3ccc(N4CCN(C)CC4)cc3)nc2n1-c1cccc(C(C)(C)O)n1 [AZD1775]; settings: max 3 µM
Method in brief: as §1

Trametinib = compound: CC(=O)Nc1cccc(-n2c(=O)n(C3CC3)c(=O)c3c(Nc4ccc(I)cc4F)n(C)c(=O)c(C)c32)c1 [Trametinib]; settings: max 1 µM
Method in brief: as §1

Palbociclib = compound: CC(=O)c1c(C)c2cnc(Nc3ccc(N4CCNCC4)cn3)nc2n(C2CCCC2)c1=O [Palbociclib]; settings: max 10 µM
Method in brief: as §1

AZD1390 = compound: CC(C)n1c(=O)n(C)c2cnc3cc(F)c(-c4ccc(OCCCN5CCCCC5)nc4)cc3c21 [AZD1390]; settings: max 0.3 µM
Method in brief: as §1

Venetoclax = compound: CC1(C)CCC(CN2CCN(c3ccc(C(=O)NS(=O)(=O)c4ccc(NCC5CCOCC5)c([N+](=O)[O-])c4)c(Oc4cnc5[nH]ccc5c4)c3)CC2)=C(c2ccc(Cl)cc2)C1 [Venetoclax]; settings: max 1 µM
Method in brief: as §1

Dasatinib = compound: CC1=C(C(=CC=C1)Cl)NC(=O)C2=CN=C(S2)NC3=CC(=NC(=N3)C)N4CCN(CC4)CCO [Dasatinib]; settings: max 2 µM
Method in brief: as §1

SG3199 = compound: CC1=CN2[C@@H](C1)C=NC3=CC(=C(C=C3C2=O)OC)OCCCCCOC4=C(C=C5C(=C4)N=C[C@@H]6CC(=CN6C5=O)C)OC [SG3199]; settings: max 0.001 µM
Method in brief: as §1

AZD2811 = compound: CCN(CCO)CCCOc1ccc2c(Nc3cc(CC(=O)Nc4cccc(F)c4)[nH]n3)ncnc2c1 [AZD2811]; settings: max 1 µM
Method in brief: as §1

SN-38 = compound: CCc1c2c(nc3ccc(O)cc13)-c1cc3c(c(=O)n1C2)COC(=O)[C@]3(O)CC [SN-38]; settings: max 0.3 µM
Method in brief: as §1

AZD0156 = compound: CN(C)CCCOc1ccc(-c2ccc3ncc4c(c3c2)n(C2CCOCC2)c(=O)n4C)cn1 [AZD0156]; settings: max 3 µM
Method in brief: as §1

AZD4320 = compound: CN(CC[C@H](CSC1=CC=CC=C1)NC2=C(C=C(C=C2)S(=O)(=O)NC(=O)C3=CC=C(C=C3)N4CCC(CC4)[C@H](C5=CC=CC=C5C6=CC=C(C=C6)Cl)O)S(=O)(=O)C(F)(F)F)CCO [AZD4320]; settings: max 1 µM
Method in brief: as §1

Alisertib = compound: COc1cc(Nc2ncc3c(n2)-c2ccc(Cl)cc2C(c2c(F)cccc2OC)=NC3)ccc1C(=O)O [Alisertib]; settings: max 10 µM
Method in brief: as §1

Gefitinib = compound: COc1cc2ncnc(Nc3ccc(F)c(Cl)c3)c2cc1OCCCN1CCOCC1 [Gefitinib]; settings: max 10 µM
Method in brief: as §1

Prexasertib = compound: COc1cccc(OCCCN)c1-c1cc(Nc2cnc(C#N)cn2)n[nH]1 [Prexasertib]; settings: max 1 µM
Method in brief: as §1

Doxorubicin = compound: COc1cccc2c1C(=O)c1c(O)c3c(c(O)c1C2=O)C[C@@](O)(C(=O)CO)C[C@@H]3O[C@H]1C[C@H](N)[C@H](O)[C@H](C)O1 [Doxorubicin]; settings: max 1 µM
Method in brief: as §1

AZD5153 = compound: COc1nnc2ccc(N3CCC(c4ccc(OCCN5CCN(C)C(=O)[C@H]5C)cc4)CC3)nn12 [AZD5153]; settings: max 1 µM
Method in brief: as §1

Lapatinib = compound: CS(=O)(=O)CCNCc1ccc(-c2ccc3ncnc(Nc4ccc(OCc5cccc(F)c5)c(Cl)c4)c3c2)o1 [Lapatinib]; settings: max 10 µM
Method in brief: as §1

AZD8186 = compound: C[C@@H](Nc1cc(F)cc(F)c1)c1cc(C(=O)N(C)C)cc2c(=O)cc(N3CCOCC3)oc12 [AZD8186]; settings: max 3 µM
Method in brief: as §1

Crizotinib = compound: C[C@@H](Oc1cc(-c2cnn(C3CCNCC3)c2)cnc1N)c1c(Cl)ccc(F)c1Cl [Crizotinib]; settings: max 10 µM
Method in brief: as §1

Savolitinib = compound: C[C@@H](c1ccc2nccn2c1)n1nnc2ncc(-c3cnn(C)c3)nc21 [Savolitinib]; settings: max 1 µM
Method in brief: as §1

AZD6738 = compound: C[C@@H]1COCCN1C2=NC(=NC(=C2)C3(CC3)[S@](=N)(=O)C)C4=C5C=CNC5=NC=C4 [AZD6738]; settings: max 10 µM
Method in brief: as §1

AZD5991 = compound: Cc1c2c(nn1C)CSCc1cc(n(C)n1)CSc1cc(c3ccccc3c1)OCCCc1c(C(=O)O)n(C)c3c-2c(Cl)ccc13 [AZD5991]; settings: max 1 µM
Method in brief: as §1

AZD7648 = compound: Cc1cc2ncnn2cc1Nc1ncc2c(n1)n(C1CCOCC1)c(=O)n2C [AZD7648]; settings: max 10 µM
Method in brief: as §1

Taselisib = compound: Cc1nc(-c2cn3c(n2)-c2ccc(-c4cnn(C(C)(C)C(N)=O)c4)cc2OCC3)n(C(C)C)n1 [Taselisib]; settings: max 10 µM
Method in brief: as §1

Selumetinib = compound: Cn1cnc2c(F)c(Nc3ccc(Br)cc3Cl)c(C(=O)NOCCO)cc21 [Selumetinib]; settings: max 10 µM
Method in brief: as §1

Olaparib = compound: O=C(c1cc(Cc2n[nH]c(=O)c3ccccc23)ccc1F)N1CCN(C(=O)C2CC2)CC1 [Olaparib]; settings: max 10 µM
Method in brief: as §1

| Cell Line | IC50, cell viability 72 h (Capivasertib) [nM] | IC50, cell viability 72 h (AZD1775) [nM] | IC50, cell viability 72 h (Trametinib) [nM] | IC50, cell viability 72 h (Palbociclib) [nM] | IC50, cell viability 72 h (AZD1390) [nM] | IC50, cell viability 72 h (Venetoclax) [nM] | IC50, cell viability 72 h (Dasatinib) [nM] | IC50, cell viability 72 h (SG3199) [nM] | IC50, cell viability 72 h (AZD2811) [nM] | IC50, cell viability 72 h (SN-38) [nM] | IC50, cell viability 72 h (AZD0156) [nM] | IC50, cell viability 72 h (AZD4320) [nM] | IC50, cell viability 72 h (Alisertib) [nM] | IC50, cell viability 72 h (Gefitinib) [nM] | IC50, cell viability 72 h (Prexasertib) [nM] | IC50, cell viability 72 h (Doxorubicin) [nM] | IC50, cell viability 72 h (AZD5153) [nM] | IC50, cell viability 72 h (Lapatinib) [nM] | IC50, cell viability 72 h (AZD8186) [nM] | IC50, cell viability 72 h (Crizotinib) [nM] | IC50, cell viability 72 h (Savolitinib) [nM] | IC50, cell viability 72 h (AZD6738) [nM] | IC50, cell viability 72 h (AZD5991) [nM] | IC50, cell viability 72 h (AZD7648) [nM] | IC50, cell viability 72 h (Taselisib) [nM] | IC50, cell viability 72 h (Selumetinib) [nM] | IC50, cell viability 72 h (Olaparib) [nM] |
| --- | --- | --- | --- | --- | --- | --- | --- | --- | --- | --- | --- | --- | --- | --- | --- | --- | --- | --- | --- | --- | --- | --- | --- | --- | --- | --- | --- |
| SNU-398 (Hepatocellular Carcinoma) | > 10000 | 701 | 849 | > 10000 | > 300 | > 1000 | > 2000 | > 1 | 801 | > 300 | > 3000 | > 1000 | 4320 | > 10000 | 777 | > 1000 | 941 | > 10000 | > 3000 | > 10000 | > 1000 | > 10000 | 150 | > 10000 | > 10000 | > 10000 | > 10000 |
| SU-DHL-5 (B-Cell Non-Hodgkin's Lymphoma) | 305 | 363 | 1000 | 559 | > 300 | > 1000 | 10.8 | > 1 | 9.84 | 1.38 | > 3000 | > 1000 | 359 | > 10000 | 4.89 | 13 | 42.3 | 6610 | 160 | 1650 | > 1000 | 457 | 8.62 | 6580 | 48.6 | > 10000 | 3380 |
| SUP-B15 (B-Lymphoblastic Leukemia) | 8510 | 692 | 627 | > 10000 | > 300 | 3.48 | 10.5 | > 1 | 34 | 2.7 | > 3000 | 2.13 | 38.4 | > 10000 | 21.7 | 369 | 98 | > 10000 | > 3000 | 1380 | > 1000 | 2110 | 38.9 | > 10000 | > 10000 | > 10000 | 2020 |

— the supplement of paper PMC11061612
